Assays:
[1] = tested on: human primary cell-based systems; experiment: BioMAP Diversity PLUS panel, phenotypic profiling; settings: tested at 6.7 and/or 20 μM; 24 to 72 hours
Method: Anti-inflammatory phenotypic profiling was conducted across 12 human primary cell-based systems as part of DiscoverX's BioMAP Diversity Plus program. These systems are designed to model complex human tissue and disease biology of the vasculature, skin, lung, and inflammatory tissues. Quantitative measurements of biomarker activities across this broad panel were used to assess each biochemical's anti-inflammatory activity at four concentrations ([…] and 2.2, 6.7 and 20 μM). […] Protein-based biomarkers from activated cell systems were measured and compared with controls.
(§1) The Diversity PLUS panel allows test agent characterization in an unbiased way across a broad set of systems modeling various human disease states. These systems are designed to model complex human tissue and disease biology of the vasculature, skin, lung, and inflammatory tissues. Quantitative measurements of 148 biomarker activities across this broad panel, along with comparative analysis of biological activities from known bioactive agents, were used to predict and compare the efficacy and function of each selected compound at selected concentrations (6.7 and/or 20 μM).
(§2) BioMAP systems are constructed with one or more primary cell types from healthy human donors, with stimuli (such as cytokines or growth factors) added to capture relevant signaling networks that naturally occur in human tissue or pathological conditions. Vascular biology is modeled in both a Th1 (3C system) and a Th2 (4H system) inflammatory environment, as well as in a Th1 inflammatory state specific to arterial smooth muscle cells (CASM3C system). Additional systems recapitulate aspects of the systemic immune response including monocyte-driven Th1 inflammation (LPS system) or T cell stimulation (SAg system), chronic Th1 inflammation driven by macrophage activation (lMphg system) and the T cell-dependent activation of B cells that occurs in germinal centers (BT system). The BE3C system (Th1) and the BF4T system (Th2) represent airway inflammation of the lung, while the MyoF system models myofibroblast-lung tissue remodeling. Lastly, skin biology is addressed in the KF3CT system modeling Th1 cutaneous inflammation and the HDF3CGF system modeling wound healing.
(§3) Each test agent generates a signature BioMAP profile that is created from the changes in protein biomarker readouts within individual system environments. Biomarker readouts (7-17 per system) are selected for therapeutic and biological relevance, are predictive for disease outcomes or specific drug effects and are validated using agents with known mechanism of action (MoA). Each readout is measured quantitatively by immune-based methods that detect protein (e.g., ELISA) or functional assays that measure proliferation and viability. BioMAP readouts are diverse and include cell surface receptors, cytokines, chemokines, matrix molecules and enzymes. In total, the Diversity PLUS panel contains 148 biomarker readouts that capture biological changes that occur within the physiological context of the particular BioMAP system.
(§4) Activated BioMAP systems were incubated with each compound for 24 to 72 hours. Protein-based biomarkers from activated cell systems were measured and compared with non-treated control systems.

[2] = tested on: 3C system (Th1 vascular biology); experiment: BioMAP 3C system; format: cell-based, human; settings: at the compound's active concentration
From the text: as §3, with “The Diversity PLUS panel allows test agent characterization in an unbiased way across a broad set of systems modeling various human disease states. These systems are designed to model complex human tissue and disease biology of the vasculature, skin, lung, and inflammatory tissues. […] BioMAP systems are constructed with one or more primary cell types from healthy human donors, with stimuli (such as cytokines or growth factors) added to capture relevant signaling networks that naturally occur in human tissue or pathological conditions. […] Each test” for “Each test”, “BioMAP system. […]” for “BioMAP system.”

[3] = tested on: 4H: Venular endothelial cells (IL-4, histamine); experiment: BioMAP 4H system; format: cell-based, human; settings: at the compound's active concentration
From the text: as §1
BioMAP systems are constructed with one or more primary cell types from healthy human donors, with stimuli (such as cytokines or growth factors) added to capture relevant signaling networks that naturally occur in human tissue or pathological conditions. Vascular biology is modeled in both a Th1 (3C system) and a Th2 (4H system) inflammatory environment, as well as in a Th1 inflammatory state specific to arterial smooth muscle cells (CASM3C system). […]
as §3, with “system. […]” for “system.”
as §4

[4] = tested on: CASM3C: Coronary artery smooth muscle cells (IL-1β, TNFα, IFNγ); experiment: BioMAP CASM3C system; format: cell-based, human; settings: CASM3C system; at the compound's active concentration
From the text: The Diversity PLUS panel allows test agent characterization in an unbiased way across a broad set of systems modeling various human disease states. These systems are designed to model complex human tissue and disease biology of the vasculature, skin, lung, and inflammatory tissues.
as §2
as §3, with “enzymes.” for “enzymes. In total, the Diversity PLUS panel contains 148 biomarker readouts that capture biological changes that occur within the physiological context of the particular BioMAP system.”
as §4

[5] = tested on: /Mphg: Macrophages, venular endothelial cells (TLR2 ligand); experiment: BioMAP /Mphg system; format: cell-based, human; settings: at the compound's active concentration
From the text: as §1, §2
as §3, with “system. […]” for “system.”
as §4

O=C(O)CNC(=O)c1ccccc1 [hippurate]
Active concentrations [1]: 6.7 to 20 µM | Tissue factor, log10 reduction vs nontreated controls [2]: −0.10 log10 | P-selectin, log10 reduction vs nontreated controls [3]: −0.10 log10 | Thrombomodulin, log10 reduction vs nontreated controls [4]: −0.16 log10 | IL-8, log10 reduction vs nontreated controls [5]: −0.12 log10

Source: patent publication US12427179B2, “Compositions and methods for diagnosis and treatment of neurodegenerative diseases” (EPITRACKER, INC., priority 2019, dated 2025)
